For 17 compounds, TGI results are on record in PubChem BioAssay (NCI).

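Five compound concentrations were applied to cells in 96-well plates for 48 hours; endpoints were derived by simple linear interpolation of the resulting dose-response curve. TGI: concentration producing complete growth inhibition.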

Among the test systems are TK-10 renal; OVCAR-8 ovarian; NCI-H460 lung; UO-31 renal; SF-539 CNS; OVCAR-4 ovarian; A549 NSCLC; SK-MEL-28 melanoma; HOP-62 NSCLC; SNB-19 CNS.
Assay in all cases: NCI-60 cell line screen, 48 h

Turning to `CSc1ccccc1P(CCP(c1ccccc1SC)c1ccccc1SC)c1ccccc1SC`, the TGI is more than 100 µM with TK-10 renal; more than 100 µM in the assay with OVCAR-8 ovarian; more than 80.1 µM in the assay on NCI-H460 lung; more than 90.3 µM with UO-31 renal; more than 79.1 µM with SF-539 CNS; more than 100 µM in the assay on OVCAR-4 ovarian. Also, the TGI in the assay on A549 NSCLC, with SK-MEL-28 melanoma, in the assay on HOP-62 NSCLC and in the assay with SNB-19 CNS was more than 100 µM each time.

As to `C=CCn1c(=O)c2ccccc2[n+]2c(-c3cccc([N+](=O)[O-])c3)csc12`, the TGI with TK-10 renal, with OVCAR-8 ovarian, in the assay with NCI-H460 lung, in the assay with UO-31 renal, with SF-539 CNS and with OVCAR-4 ovarian was more than 100 µM in each case. Moreover, the TGI in the assay with A549 NSCLC, in the assay with SK-MEL-28 melanoma, in the assay with HOP-62 NSCLC and in the assay with SNB-19 CNS was more than 100 µM in each case.

With `C[C@@H]1OCC(O)C([C@H]2OC(c3ccccc3)=N[C@H]2CO)O1` (stereo not given in full), the TGI with TK-10 renal, in the assay with OVCAR-8 ovarian, in the assay on NCI-H460 lung, in the assay with UO-31 renal, in the assay on SF-539 CNS and in the assay on OVCAR-4 ovarian was more than 100 µM in each case. For the same compound, the TGI with A549 NSCLC, in the assay on SK-MEL-28 melanoma, in the assay on HOP-62 NSCLC and in the assay on SNB-19 CNS was more than 100 µM in each case.

`CC(C)c1nccn1Cc1ccc(Cl)cc1Cl`: the TGI with TK-10 renal, in the assay with OVCAR-8 ovarian, with NCI-H460 lung, in the assay with UO-31 renal, in the assay with SF-539 CNS and in the assay on OVCAR-4 ovarian was more than 100 µM throughout. Also, the TGI in the assay with A549 NSCLC, in the assay on SK-MEL-28 melanoma, with HOP-62 NSCLC and with SNB-19 CNS was more than 100 µM in each case.

`OC(O)(C(F)(F)F)C(F)(F)F`: the TGI with TK-10 renal, in the assay on OVCAR-8 ovarian, in the assay with NCI-H460 lung, with UO-31 renal, with SF-539 CNS and with OVCAR-4 ovarian was more than 100 µM throughout. Also, the TGI with A549 NSCLC, in the assay with SK-MEL-28 melanoma, with HOP-62 NSCLC and in the assay on SNB-19 CNS was more than 100 µM throughout.

Consider `C/C(=C\c1ccccc1)C(=O)NCc1ccc(C(=O)NCCc2c[nH]c3ccccc23)cc1`, for which the TGI in the assay on TK-10 renal, in the assay with OVCAR-8 ovarian, in the assay with NCI-H460 lung, with UO-31 renal, in the assay on SF-539 CNS and in the assay with OVCAR-4 ovarian was more than 100 µM each time. For the same compound, the TGI in the assay on A549 NSCLC, in the assay with SK-MEL-28 melanoma, with HOP-62 NSCLC and in the assay on SNB-19 CNS was more than 100 µM in each case.

For `c1ccc2c(c1)c1c3n2-c2cc(on2)C3CCC1` (stereo not given), the TGI with TK-10 renal, with OVCAR-8 ovarian, in the assay on NCI-H460 lung, in the assay with UO-31 renal, in the assay with SF-539 CNS and in the assay on OVCAR-4 ovarian was more than 100 µM each time. Further, the TGI with A549 NSCLC, with SK-MEL-28 melanoma, in the assay with HOP-62 NSCLC and with SNB-19 CNS was more than 100 µM each time.

Regarding `C=C1C(=O)O[C@H]2C3C(=C(C)CC[C@@H]12)C(=O)[C@@H]1OC31C` (stereo not given in full), the TGI amounted to 4.4 µM in the assay with TK-10 renal; 5.42 µM in the assay on OVCAR-8 ovarian; 25.3 µM in the assay with NCI-H460 lung; 11.1 µM with UO-31 renal; 6.75 µM in the assay on SF-539 CNS; 3.39 µM in the assay on OVCAR-4 ovarian. For the same compound, the TGI in the assay on A549 NSCLC came to 28.3 µM; in the assay on SK-MEL-28 melanoma it was 5.52 µM; with HOP-62 NSCLC, 28.6 µM; in the assay with SNB-19 CNS, 29.5 µM.

Take `N#Cc1c(-c2ccc(Cl)cc2)cc(-c2nc3ccccc3[nH]2)nc1N`: the TGI came to 27.3 µM in the assay with TK-10 renal; 49.5 µM with OVCAR-8 ovarian; 21.6 µM with NCI-H460 lung; 21.9 µM in the assay on UO-31 renal; 31.7 µM with SF-539 CNS; 36.2 µM in the assay with OVCAR-4 ovarian. The TGI in the assay with A549 NSCLC came to 20.9 µM; in the assay with SK-MEL-28 melanoma, 36 µM; in the assay on HOP-62 NSCLC it was 38.5 µM; with SNB-19 CNS it was 27.5 µM.

Regarding `COc1ccc(C2=NNC(=O)c3ccccc3N2c2nc(-c3cccs3)nc3ccc(Br)cc23)cc1`, the TGI is 72.8 µM in the assay with TK-10 renal; more than 100 µM with OVCAR-8 ovarian; more than 100 µM in the assay on NCI-H460 lung; more than 100 µM in the assay with UO-31 renal; 39.3 µM in the assay with SF-539 CNS; more than 100 µM in the assay on OVCAR-4 ovarian. The TGI with A549 NSCLC was more than 100 µM; in the assay on SK-MEL-28 melanoma it was more than 100 µM; in the assay with HOP-62 NSCLC, 49.5 µM; in the assay on SNB-19 CNS it was more than 100 µM.

`C/C(=C\CNc1nc(Cl)nc2nc[nH]c12)CO`: the TGI with TK-10 renal, in the assay on OVCAR-8 ovarian, in the assay on NCI-H460 lung, in the assay with UO-31 renal, with SF-539 CNS and in the assay on OVCAR-4 ovarian was more than 100 µM each time. Moreover, the TGI with A549 NSCLC, in the assay on SK-MEL-28 melanoma, in the assay on HOP-62 NSCLC and in the assay on SNB-19 CNS was more than 100 µM each time.

Regarding `COC1=CC(=O)c2c(cc(COP(=O)(N(C)CCBr)N(C)CCBr)n2C)C1=O`, the TGI in the assay on TK-10 renal was found to be 2.01 µM; with OVCAR-8 ovarian, 3.98 µM; with NCI-H460 lung it was 9.44 µM; in the assay on UO-31 renal, 2.52 µM; in the assay on SF-539 CNS it was 0.339 µM; in the assay with OVCAR-4 ovarian, 20.4 µM. For the same compound, the TGI is 7.18 µM in the assay on A549 NSCLC, 3.51 µM in the assay with SK-MEL-28 melanoma, 5.23 µM with HOP-62 NSCLC and 14.7 µM in the assay on SNB-19 CNS.

Consider `O=c1/c(=C/c2ccc(-c3ccc(Cl)cc3Cl)o2)sc2n1[C@@H](c1ccc3c(c1)OCO3)C=C(c1cc(F)c(Cl)cc1Cl)N=2`, for which the TGI with TK-10 renal is 59 µM; in the assay with OVCAR-8 ovarian, more than 100 µM; in the assay with NCI-H460 lung, more than 100 µM; with UO-31 renal, 95.1 µM; in the assay with SF-539 CNS, more than 100 µM; in the assay on OVCAR-4 ovarian, more than 100 µM. The TGI in the assay with A549 NSCLC is more than 100 µM; in the assay with SK-MEL-28 melanoma, more than 100 µM; in the assay with HOP-62 NSCLC, 28.9 µM; with SNB-19 CNS, 95.4 µM.

In the case of `Cc1ccc(S(=O)(=O)N2CCN(CCO)CCN(S(=O)(=O)c3ccc(C)cc3)CCN(CCO)CC2)cc1`, the TGI with TK-10 renal is more than 100 µM; with OVCAR-8 ovarian, more than 100 µM; with NCI-H460 lung it was 28.7 µM; in the assay on UO-31 renal, more than 100 µM; with SF-539 CNS, 33.4 µM; with OVCAR-4 ovarian, 37.6 µM. Besides, the TGI was 57 µM in the assay on A549 NSCLC, 30.2 µM in the assay on SK-MEL-28 melanoma, 81.5 µM in the assay with HOP-62 NSCLC and more than 100 µM with SNB-19 CNS.

On to `CSC1NNC2(C(=O)N1)c1ccccc1-c1ccccc12` (stereo not given), for which the TGI in the assay on TK-10 renal, with OVCAR-8 ovarian, in the assay with NCI-H460 lung, with UO-31 renal, in the assay on SF-539 CNS and in the assay on OVCAR-4 ovarian was more than 10 µM throughout. In addition, the TGI in the assay with A549 NSCLC, in the assay on SK-MEL-28 melanoma, in the assay with HOP-62 NSCLC and in the assay on SNB-19 CNS was more than 10 µM in each case.

As to `CC(=O)Nc1ccc(/C=C(\NC(=O)c2ccccc2)C(=O)NNS(=O)(=O)c2ccc(C)cc2)cc1`, the TGI with TK-10 renal, in the assay on OVCAR-8 ovarian, in the assay with NCI-H460 lung, with UO-31 renal, in the assay with SF-539 CNS and in the assay on OVCAR-4 ovarian was more than 100 µM each time. The TGI with A549 NSCLC, in the assay with SK-MEL-28 melanoma, with HOP-62 NSCLC and in the assay on SNB-19 CNS was more than 100 µM in each case.

For the compound `O=C(Nc1nc(C23CC4CC(CC(C4)C2)C3)cs1)c1cc2cc([N+](=O)[O-])ccc2oc1=O`, the TGI was more than 100 µM in the assay on TK-10 renal; more than 100 µM with OVCAR-8 ovarian; more than 100 µM in the assay on NCI-H460 lung; more than 100 µM with UO-31 renal; more than 100 µM in the assay on SF-539 CNS; 44.8 µM in the assay with OVCAR-4 ovarian. In addition, the TGI in the assay with A549 NSCLC, in the assay with SK-MEL-28 melanoma, in the assay on HOP-62 NSCLC and with SNB-19 CNS was more than 100 µM throughout.
